The source of these data is patent publication US20210041441A1, “DISCOVERY OF NOVEL MOLECULES AND REPURPOSED DRUGS FOR RAS FAMILY GTPases” (UNM Rainforest Innovations, priority 2018, published 2021).

The experiment has as its system Ras family GTPases (KRas WT, G12v, G13d, G12a, G12c, G12d, Q61H, Q61L, Q61R; HRas WT, HRas G12v; CDC42 WT, CDC42 L61; Rac1 WT, Rac1 L61). Nature of the experiment: Multiplex flow cytometry Bodipy FL-GTP binding, compound screen and dose response. The following applies: for activity or affinity relative to other compounds / selectivity among GTPases (RAS vs non-RAS, individual proteins): multiplex dose response; for class of modulation of Bodipy-GTP binding to Ras family GTPases (pan activator, pan inhibitor, selective inhibitor, mixed activity modulator): multiplex, 10 nM Bodipy FL-GTP, compound 100-0.015 μM, normalized to DMSO.

“Also recorded” adds a separate entry of the source. Where a name gives a salt, the structure may show the parent alone.

Take `COc1ccc2cc([C@@H](C)C(=O)[O-])ccc2c1.[Na+]` [(R)-Naproxen sodium salt]: the “activity or affinity relative to other compounds” value is on record as “greater activity than did the naproxen sample”. In addition, under “listed as (R)-naproxen sodium salt, sodium salt”, the “class of modulation of Bodipy-GTP binding to Ras family GTPases (pan activator, pan inhibitor, selective inhibitor, mixed activity modulator)” value is “Pan activators”. In addition, for the setting “sodium salt”, the “class of modulation of Bodipy-GTP binding to Ras family GTPases (pan activator, pan inhibitor, selective inhibitor, mixed activity modulator)” value is “pan activators”. On to `CC1(C)CCC2=C(O1)c1ccccc1C(=O)C2=O` [Beta Lapachone], for which the “selectivity among GTPases (RAS vs non-RAS, individual proteins)” value is on record as “RAS activator/non-RAS inhibitor” and the “class of modulation of Bodipy-GTP binding to Ras family GTPases (pan activator, pan inhibitor, selective inhibitor, mixed activity modulator)” value is “mixed activity modulators”. Besides, the “class of modulation of Bodipy-GTP binding to Ras family GTPases (pan activator, pan inhibitor, selective inhibitor, mixed activity modulator)” value (listed as B-lapachone) is “mixed activity”. Also, the “class of modulation of Bodipy-GTP binding to Ras family GTPases (pan activator, pan inhibitor, selective inhibitor, mixed activity modulator)” value (listed as Beta-lapachone) was “modulators with mixed activity”. As to `CCN(CC)CCN(Cc1ccc(-c2ccc(C(F)(F)F)cc2)cc1)C(=O)Cn1c(SCc2ccc(F)cc2)nc(=O)c2c1CCC2` [Darapladib], the “class of modulation of Bodipy-GTP binding to Ras family GTPases (pan activator, pan inhibitor, selective inhibitor, mixed activity modulator)” value is “mixed activity modulators”. The “class of modulation of Bodipy-GTP binding to Ras family GTPases (pan activator, pan inhibitor, selective inhibitor, mixed activity modulator)” value (listed as darapladib) is on record as “modulators with mixed activity”. Regarding `COc1cc(C)c(C(=O)Oc2cc(C)c(C(=O)O)c(O)c2C)c(OC)c1C` [Diffractaic acid], the “class of modulation of Bodipy-GTP binding to Ras family GTPases (pan activator, pan inhibitor, selective inhibitor, mixed activity modulator)” value was “pan inhibitors”. The “class of modulation of Bodipy-GTP binding to Ras family GTPases (pan activator, pan inhibitor, selective inhibitor, mixed activity modulator)” value (listed as Diffractaic Acid) is on record as “Pan inhibitors”. As to `COc1ccc(C(=O)c2ccccc2O)c(O)c1` [Dioxybenzone], the “class of modulation of Bodipy-GTP binding to Ras family GTPases (pan activator, pan inhibitor, selective inhibitor, mixed activity modulator)” value is on record as “pan activators”. Besides, the “class of modulation of Bodipy-GTP binding to Ras family GTPases (pan activator, pan inhibitor, selective inhibitor, mixed activity modulator)” value (listed as dioxybenzone) is “activators”. With `O=c1c(O)c(-c2ccc(O)c(O)c2)oc2cc(O)ccc12` [Fisetin], the “class of modulation of Bodipy-GTP binding to Ras family GTPases (pan activator, pan inhibitor, selective inhibitor, mixed activity modulator)” value is recorded as “pan inhibitors”. As to `O=C(O)c1ccccc1Nc1cccc(C(F)(F)F)c1` [Flufenamic Acid], the “class of modulation of Bodipy-GTP binding to Ras family GTPases (pan activator, pan inhibitor, selective inhibitor, mixed activity modulator)” value is reported as “pan activators”. For the same compound, for the setting “listed as fufenamic acid”, the “class of modulation of Bodipy-GTP binding to Ras family GTPases (pan activator, pan inhibitor, selective inhibitor, mixed activity modulator)” value is listed as “Pan activators”. `CC(C(=O)O)c1ccc(-c2ccccc2)c(F)c1` (centres unmarked) [Flurbiprofen]: the “class of modulation of Bodipy-GTP binding to Ras family GTPases (pan activator, pan inhibitor, selective inhibitor, mixed activity modulator)” value was “pan activators”. Further, the “class of modulation of Bodipy-GTP binding to Ras family GTPases (pan activator, pan inhibitor, selective inhibitor, mixed activity modulator)” value (listed as fluribuprofen) is reported as “Pan activators”. On to `Nc1nc2ncc(CNc3ccc(C(=O)N[C@@H](CCC(=O)O)C(=O)O)cc3)nc2c(=O)[nH]1` [Folic acid], for which the “class of modulation of Bodipy-GTP binding to Ras family GTPases (pan activator, pan inhibitor, selective inhibitor, mixed activity modulator)” value is given as “pan inhibitors”.

With `CN(C)CCCn1cc(C2=C(c3c[nH]c4ccccc34)C(=O)NC2=O)c2ccccc21` [GF109203X], the “selectivity among GTPases (RAS vs non-RAS, individual proteins)” value is “selective activator non-RAS” and the “class of modulation of Bodipy-GTP binding to Ras family GTPases (pan activator, pan inhibitor, selective inhibitor, mixed activity modulator)” value is “modulators with mixed activity”. `O=C(NCCS(=O)(=O)c1ccc(C(F)(F)F)cn1)c1ccc(Cl)cc1` [GSK 3787]: the “class of modulation of Bodipy-GTP binding to Ras family GTPases (pan activator, pan inhibitor, selective inhibitor, mixed activity modulator)” value is listed as “pan inhibitors”. For the same compound, the “class of modulation of Bodipy-GTP binding to Ras family GTPases (pan activator, pan inhibitor, selective inhibitor, mixed activity modulator)” value (listed as GSK3787) is given as “Pan inhibitors”.

Regarding `Oc1ccc2ccccc2c1SSc1c(O)ccc2ccccc12` [IPA 3], the “class of modulation of Bodipy-GTP binding to Ras family GTPases (pan activator, pan inhibitor, selective inhibitor, mixed activity modulator)” value is recorded as “pan inhibitors”. `CCC(Cc1c(I)cc(I)c(N)c1I)C(=O)O` (centres unmarked) [Iopanic acid]: the “class of modulation of Bodipy-GTP binding to Ras family GTPases (pan activator, pan inhibitor, selective inhibitor, mixed activity modulator)” value was “pan activators”. For the same compound, for the setting “listed as iopanic acid”, the “class of modulation of Bodipy-GTP binding to Ras family GTPases (pan activator, pan inhibitor, selective inhibitor, mixed activity modulator)” value is given as “activators”. Consider `O=C1c2ccccc2S(=O)(=O)N1CCCCN1CCN(c2ncccn2)CC1` [Ipsapirone], for which the “class of modulation of Bodipy-GTP binding to Ras family GTPases (pan activator, pan inhibitor, selective inhibitor, mixed activity modulator)” value is listed as “mixed activity modulators”. In addition, the “class of modulation of Bodipy-GTP binding to Ras family GTPases (pan activator, pan inhibitor, selective inhibitor, mixed activity modulator)” value (listed as ipsapirone) was “modulators with mixed activity”. `Cc1ccc(Cl)c(Nc2ccccc2C(=O)O)c1Cl` [Meclofenamic acid sodium salt monohydrate]: the “class of modulation of Bodipy-GTP binding to Ras family GTPases (pan activator, pan inhibitor, selective inhibitor, mixed activity modulator)” value reads like this: (listed as meclofenamic acid sodium salt monohydrate, sodium salt monohydrate) “Pan activators”; (sodium salt monohydrate) “pan activators”. As to `Cc1cccc(Nc2ccccc2C(=O)O)c1C` [Mefenamic Acid], the “class of modulation of Bodipy-GTP binding to Ras family GTPases (pan activator, pan inhibitor, selective inhibitor, mixed activity modulator)” value is “pan activators”. Further, the “class of modulation of Bodipy-GTP binding to Ras family GTPases (pan activator, pan inhibitor, selective inhibitor, mixed activity modulator)” value (listed as mefenamic acid) was “Pan activators”.

For the compound `CC1=CC(=O)c2ccccc2C1=O` [Menindione], the “class of modulation of Bodipy-GTP binding to Ras family GTPases (pan activator, pan inhibitor, selective inhibitor, mixed activity modulator)” value was “PanActivators”. For `COc1ccc2cc([C@H](C)C(=O)O)ccc2c1` [Naproxen], the “class of modulation of Bodipy-GTP binding to Ras family GTPases (pan activator, pan inhibitor, selective inhibitor, mixed activity modulator)” value is on record as “pan activators”. Moreover, for the setting “listed as naproxen”, the “class of modulation of Bodipy-GTP binding to Ras family GTPases (pan activator, pan inhibitor, selective inhibitor, mixed activity modulator)” value is listed as “Pan activators”. `Cc1cc(I)ccc1Nc1c(C(=O)NOCC2CC2)cc(F)c(F)c1F` [PD 198306]: the “class of modulation of Bodipy-GTP binding to Ras family GTPases (pan activator, pan inhibitor, selective inhibitor, mixed activity modulator)” value is recorded as “mixed activity modulators”. The “class of modulation of Bodipy-GTP binding to Ras family GTPases (pan activator, pan inhibitor, selective inhibitor, mixed activity modulator)” value (listed as PD198306) is recorded as “mixed activity with mostly activation, but some inhibition as well; also recorded: modulators with mixed activity”. As to `N#CSc1cc(SC#N)c(N)nc1N` [PR-619], the “class of modulation of Bodipy-GTP binding to Ras family GTPases (pan activator, pan inhibitor, selective inhibitor, mixed activity modulator)” value is given as “pan inhibitors”. Take `CN1CCC(=C2c3ccccc3Sc3ccccc32)CC1` [Pimethixene Maleate]: the “class of modulation of Bodipy-GTP binding to Ras family GTPases (pan activator, pan inhibitor, selective inhibitor, mixed activity modulator)” value is reported as “mixed activity modulators”. The “class of modulation of Bodipy-GTP binding to Ras family GTPases (pan activator, pan inhibitor, selective inhibitor, mixed activity modulator)” value (listed as pimethixene maleate) is listed as “modulators with mixed activity”. For the same compound, the “class of modulation of Bodipy-GTP binding to Ras family GTPases (pan activator, pan inhibitor, selective inhibitor, mixed activity modulator)” value (listed as pimethixine maleate) is reported as “mixed activity”. As to `CC(C)Cc1ccc(C(C)C(=O)O)cc1` (stereo not drawn) [S-(+)-Ibuprofen], the “activity or affinity relative to other compounds” value is on record as “lower affinity than the mixture”.

Consider `O=C(Oc1ccccc1C(=O)O)c1ccccc1O` [Salsalate], for which the “class of modulation of Bodipy-GTP binding to Ras family GTPases (pan activator, pan inhibitor, selective inhibitor, mixed activity modulator)” value is reported as “pan activators”. The “class of modulation of Bodipy-GTP binding to Ras family GTPases (pan activator, pan inhibitor, selective inhibitor, mixed activity modulator)” value (listed as salsalate) is listed as “Pan activators”. On to `Cc1c(Cl)cccc1Nc1ccccc1C(=O)O` [Tolfenamic acid], for which the “class of modulation of Bodipy-GTP binding to Ras family GTPases (pan activator, pan inhibitor, selective inhibitor, mixed activity modulator)” value is “pan activators”. For the setting “listed as tolfenamic acid”, the “class of modulation of Bodipy-GTP binding to Ras family GTPases (pan activator, pan inhibitor, selective inhibitor, mixed activity modulator)” value is on record as “Pan activators”. For the compound A-7 hydrochloride, the “class of modulation of Bodipy-GTP binding to Ras family GTPases (pan activator, pan inhibitor, selective inhibitor, mixed activity modulator)” value is recorded as “pan activators”.
